How the values were obtained:
[1] = molecular target: T1, Acyl-CoA:cholesterol acyltransferase (Oryctolagus cuniculus) (UniProt Q95214); assay: Inhibition of ACAT in Albino rabbit intestinal mucosa at 10 uM
T1 sequence (whole entry): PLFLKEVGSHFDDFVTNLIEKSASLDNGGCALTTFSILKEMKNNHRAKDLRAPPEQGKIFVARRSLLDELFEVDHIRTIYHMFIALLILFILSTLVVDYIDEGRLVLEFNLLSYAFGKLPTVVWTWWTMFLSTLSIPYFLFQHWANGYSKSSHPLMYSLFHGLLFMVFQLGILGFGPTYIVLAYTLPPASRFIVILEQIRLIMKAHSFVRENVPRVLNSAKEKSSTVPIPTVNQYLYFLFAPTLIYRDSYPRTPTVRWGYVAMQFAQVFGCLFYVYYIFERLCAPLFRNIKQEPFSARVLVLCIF

[2] = molecular target: T2, Acyl-CoA:cholesterol acyltransferase (Oryctolagus cuniculus, UniProt Q95214); assay: Inhibition of ACAT in Albino rabbit intestinal mucosa
T2 sequence (Q95214 whole entry): T1 sequence (whole entry)

inhibition [1] [%]	IC50 [2] [µM]	Structure (SMILES)
65		CC[C@@H](N=[N+]=[N-])[C@@H](O)[C@]1(Br)C(=O)N([C@@H](C)c2ccccc2)[C@H]1c1ccccc1
60		CC[C@H](N=[N+]=[N-])[C@H](O)[C@]1(Br)C(=O)N([C@@H](C)c2ccccc2)[C@H]1c1ccccc1
	16.8	CC[C@H](C)C(=O)O[C@H]1C[C@@H](C)C=C2C=C[C@H](C)[C@H](CC[C@@H]3C[C@@H](O)CC(=O)O3)[C@H]21 [LOVASTATIN]
